Experimental data as given in patent US20220089598A1, “INHIBITORS OF HUMAN IMMUNODEFICIENCY VIRUS REPLICATION” (VIIV HEALTHCARE UK (No. 5) LIMITED, priority 2018, published 2022).

Legend:
[1] = Compound cytotoxicity, XTT-based colorimetric assay; type: cell-based; conditions: human; uninfected MT2 cells, day 4, XTT assay
Procedure: Compound cytotoxicity and the corresponding CC50 values were determined using the same protocol as described in the antiviral assay except that uninfected cells were used. Cytotoxicity was assessed on day 4 in uninfected MT2 cells by using a XTT (2,3-bis[2-Methoxy-4-nitro-5-sulfophenyl]-2H-tetrazolium-5-carboxyanilide inner salt)-based colorimetric assay (Sigma-Aldrich, St Louis, Mo.).

[2] = tested on: recombinant NL4-3 virus (Renilla luciferase) in MT-2 cells; experiment: HIV cell culture assay (antiviral activity, luciferase readout); type: cell-based; conditions: Renilla, NL43
Procedure: HIV cell culture assay—MT-2 cells, 293T cells and the proviral DNA clone of NL4-3 virus were obtained from the NIH AIDS Research and Reference Reagent Program. MT-2 cells were propagated in RPMI 1640 media supplemented with 10% heat inactivated fetal bovine serum (FBS), 100 μg/ml penicillin G and up to 100 units/mL streptomycin. The 293T cells were propagated in DMEM media supplemented with 10% heat inactivated FBS, 100 μg/mL penicillin G and 100 μg/mL streptomycin. A recombinant NL4-3 proviral clone, in which a section of the nef gene was replaced with the Renilla luciferase gene, was used to make the reference virus used in these studies. The recombinant virus was prepared through transfection of the recombinant NL4-3 proviral clone into 293T cells using Transit-293 Transfection Reagent from Mirus Bio LLC (Madison, Wis.). Supernatent was harvested after 2-3 days and the amount of virus present was titered in MT-2 cells using luciferase enzyme activity as a marker by measuring luciferase enzyme activity. Luciferase was quantitated using the EnduRen Live Cell Substrate from Promega (Madison, Wis.). Antiviral activities of compounds toward the recombinant virus were quantified by measuring luciferase activity in MT-2 cells infected for 4-5 days with the recombinant virus in the presence of serial dilutions of the compound.
The 50% effective concentration (EC50) was calculated by using the exponential form of the median effect equation where (Fa)=1/[1+(ED50/drug conc.)m] (Johnson V A, Byington R T. Infectivity Assay. In Techniques in HIV Research. ed. Aldovini A, Walker B D. 71-76. New York: Stockton Press. 1990).

SMILES	CC50 at 4 day [1] [nM]	EC50 [2] [nM]
Cn1nc(NS(C)(=O)=O)c2c(Cl)ccc(-n3c([C@H](Cc4cc(F)cc(F)c4)NC(=O)Cn4nc(C(F)F)c5c4C(F)(F)[C@@H]4C[C@H]54)nc4nc(-c5ccc(F)c(Cl)c5F)ccc4c3=O)c21 (atropisomer, axis not shown; (P)) [Example 22, N—((S)-1-((3P)-3-(4-chloro-1-methyl-3-(methylsulfonamido)-1H-indazol-7-yl)-7-(3-chloro-2,4-difluorophenyl)-4-oxo-3,4-dihydropyrido[2,3-d]pyrimidin-2-yl)-2-(3,5-difluorophenyl)ethyl)-2-((3bS,4aR)-3-(difluoromethyl)-5,5-difluoro-3b,4,4a,5-tetrahydro-1H-cyclopropa[3,4]cyclopenta[1,2-c]pyrazol-1-yl)acetamide]	> 100	0.1
CS(=O)(=O)Nc1nn(CC(F)(F)F)c2c(-n3c([C@H](Cc4cc(F)cc(F)c4)NC(=O)Cn4nc(C(F)F)c5c4C(F)(F)[C@@H]4C[C@H]54)nc4nc(-c5ccccc5F)ccc4c3=O)ccc(Cl)c12 (atropisomer, axis not shown; (P)) [Example 27, N—((S)-1-((3P)-3-(4-chloro-3-(methylsulfonamido)-1-(2,2,2-trifluoroethyl)-1H-indazol-7-yl)-7-(2-fluorophenyl)-4-oxo-3,4-dihydropyrido[2,3-d]pyrimidin-2-yl)-2-(3,5-difluorophenyl)ethyl)-2-((3bS,4aR)-3-(difluoromethyl)-5,5-difluoro-3b,4,4a,5-tetrahydro-1H-cyclopropa[3,4]cyclopenta[1,2-c]pyrazol-1-yl)acetamide]	> 500	0.088
Cn1nc(NS(C)(=O)=O)c2c(Cl)ccc(-n3c([C@H](Cc4cc(F)cc(F)c4)NC(=O)Cn4nc(C(F)(F)F)c5c4C(F)(F)[C@@H]4C[C@H]54)nc4nc(-c5ccccc5F)ccc4c3=O)c21 (atropisomer, axis not shown; (P)) [Example 17, N—((S)-1-((3P)-3-(4-chloro-1-methyl-3-(methylsulfonamido)-1H-indazol-7-yl)-7-(2-fluorophenyl)-4-oxo-3,4-dihydropyrido[2,3-d]pyrimidin-2-yl)-2-(3,5-difluorophenyl)ethyl)-2-((3bS,4aR)-5,5-difluoro-3-(trifluoromethyl)-3b,4,4a,5-tetrahydro-1H-cyclopropa[3,4]cyclopenta[1,2-c]pyrazol-1-yl)acetamide]	> 100	0.065
Cn1nc(NS(C)(=O)=O)c2c(Cl)ccc(-n3c([C@H](Cc4cc(F)cc(F)c4)NC(=O)Cn4nc(C(F)F)c5c4C(F)(F)[C@@H]4C[C@H]54)nc4nc(-c5cccc(F)c5F)ccc4c3=O)c21 (atropisomer, axis not shown; (P)) [Example 4, N—((S)-1-((3P)-3-(4-chloro-1-methyl-3-(methylsulfonamido)-1H-indazol-7-yl)-7-(2,3-difluorophenyl)-4-oxo-3,4-dihydropyrido[2,3-d]pyrimidin-2-yl)-2-(3,5-difluorophenyl)ethyl)-2-((3bS,4aR)-3-(difluoromethyl)-5,5-difluoro-3b,4,4a,5-tetrahydro-1H-cyclopropa[3,4]cyclopenta[1,2-c]pyrazol-1-yl)acetamide]	> 100	0.092
O=C(Cn1ccc(C2CC2)n1)N[C@@H](Cc1cc(F)cc(F)c1)c1nc2nc(-c3ccccc3F)ccc2c(=O)n1-c1ccc(Cl)c2c(NS(=O)(=O)C3CC3)nn(CC(F)F)c12 (atropisomer, axis not shown; (P)) [Example 35, (S)—N-(1-((3P)-3-(4-chloro-3-(cyclopropanesulfonamido)-1-(2,2-difluoroethyl)-1H-indazol-7-yl)-7-(2-fluorophenyl)-4-oxo-3,4-dihydropyrido[2,3-d]pyrimidin-2-yl)-2-(3,5-difluorophenyl)ethyl)-2-(3-cyclopropyl-1H-pyrazol-1-yl)acetamide]	> 500	0.2
Cn1nc(NS(C)(=O)=O)c2c(Cl)ccc(-n3c([C@H](Cc4cc(F)cc(F)c4)NC(=O)Cn4nc(C(F)F)c5c4C(F)(F)[C@@H]4C[C@H]54)nc4nc(-c5ccc(F)cc5S(C)(=O)=O)ccc4c3=O)c21 (atropisomer, axis not shown; (P)) [Example 19, N—((S)-1-((3P)-3-(4-chloro-1-methyl-3-(methylsulfonamido)-1H-indazol-7-yl)-7-(4-fluoro-2-(methylsulfonyl)phenyl)-4-oxo-3,4-dihydropyrido[2,3-d]pyrimidin-2-yl)-2-(3,5-difluorophenyl)ethyl)-2-((3bS,4aR)-3-(difluoromethyl)-5,5-difluoro-3b,4,4a,5-tetrahydro-1H-cyclopropa[3,4]cyclopenta[1,2-c]pyrazol-1-yl)acetamide]	> 500	0.12
CS(=O)(=O)Nc1nn(CC(F)F)c2c(-n3c([C@H](Cc4cc(F)cc(F)c4)NC(=O)Cn4nc(C(F)F)c5c4C(F)(F)[C@@H]4C[C@H]54)nc4nc(-c5ccccc5F)ccc4c3=O)ccc(Cl)c12 (atropisomer, axis not shown; (P)) [Example 10, N—((S)-1-((3P)-3-(4-chloro-1-(2,2-difluoroethyl)-3-(methylsulfonamido)-1H-indazol-7-yl)-7-(2-fluorophenyl)-4-oxo-3,4-dihydropyrido[2,3-d]pyrimidin-2-yl)-2-(3,5-difluorophenyl)ethyl)-2-((3bS,4aR)-3-(difluoromethyl)-5,5-difluoro-3b,4,4a,5-tetrahydro-1H-cyclopropa[3,4]cyclopenta[1,2-c]pyrazol-1-yl)acetamide]	> 100	0.097
Cn1nc(NS(C)(=O)=O)c2c(Cl)ccc(-n3c([C@H](Cc4cc(F)cc(F)c4)NC(=O)Cn4nc(C(F)F)c5c4C(F)(F)[C@@H]4C[C@H]54)nc4nc(-c5ccc(Cl)cc5Cl)ccc4c3=O)c21 (atropisomer, axis not shown; (P)) [Example 25, N—((S)-1-((3P)-3-(4-chloro-1-methyl-3-(methylsulfonamido)-1H-indazol-7-yl)-7-(2,4-dichlorophenyl)-4-oxo-3,4-dihydropyrido[2,3-d]pyrimidin-2-yl)-2-(3,5-difluorophenyl)ethyl)-2-((3bS,4aR)-3-(difluoromethyl)-5,5-difluoro-3b,4,4a,5-tetrahydro-1H-cyclopropa[3,4]cyclopenta[1,2-c]pyrazol-1-yl)acetamide]	> 100	0.42
CS(=O)(=O)Nc1nn(CC(F)(F)F)c2c(-n3c([C@H](Cc4cc(F)cc(F)c4)NC(=O)Cn4nc(C(F)(F)F)c5c4C(F)(F)[C@@H]4C[C@H]54)nc4nc(-c5ccccc5F)ccc4c3=O)ccc(Cl)c12 (atropisomer, axis not shown; (P)) [Example 11, N—((S)-1-((3P)-3-(4-chloro-3-(methylsulfonamido)-1-(2,2,2-trifluoroethyl)-1H-indazol-7-yl)-7-(2-fluorophenyl)-4-oxo-3,4-dihydropyrido[2,3-d]pyrimidin-2-yl)-2-(3,5-difluorophenyl)ethyl)-2-((3bS,4aR)-5,5-difluoro-3-(trifluoromethyl)-3b,4,4a,5-tetrahydro-1H-cyclopropa[3,4]cyclopenta[1,2-c]pyrazol-1-yl)acetamide]	> 100	0.15
Cn1nc(NS(C)(=O)=O)c2c(Cl)ccc(-n3c([C@H](Cc4cc(F)cc(F)c4)NC(=O)Cn4nc(C(F)F)c5c4C(F)(F)[C@@H]4C[C@H]54)nc4nc(-c5cccc(S(C)(=O)=O)c5)ccc4c3=O)c21 (atropisomer, axis not shown; (P)) [Example 23, N—((S)-1-((3P)-3-(4-chloro-1-methyl-3-(methylsulfonamido)-1H-indazol-7-yl)-7-(3-(methylsulfonyl)phenyl)-4-oxo-3,4-dihydropyrido[2,3-d]pyrimidin-2-yl)-2-(3,5-difluorophenyl)ethyl)-2-((3bS,4aR)-3-(difluoromethyl)-5,5-difluoro-3b,4,4a,5-tetrahydro-1H-cyclopropa[3,4]cyclopenta[1,2-c]pyrazol-1-yl)acetamide]	> 100	0.065
Cn1nc(NS(C)(=O)=O)c2c(Cl)ccc(-n3c([C@H](Cc4cc(F)cc(F)c4)NC(=O)Cn4nc(C(F)F)c5c4C(F)(F)[C@@H]4C[C@H]54)nc4cc(-c5ccc(F)cc5F)cnc4c3=O)c21 (atropisomer, axis not shown; (P)) [Example 37, N—((S)-1-((3P)-3-(4-chloro-1-methyl-3-(methylsulfonamido)-1H-indazol-7-yl)-7-(2,4-difluorophenyl)-4-oxo-3,4-dihydropyrido[3,2-d]pyrimidin-2-yl)-2-(3,5-difluorophenyl)ethyl)-2-((3bS,4aR)-3-(difluoromethyl)-5,5-difluoro-3b,4,4a,5-tetrahydro-1H-cyclopropa[3,4]cyclopenta[1,2-c]pyrazol-1-yl)acetamide]	> 500	2
